Results on 5 compounds are retold here after patent US9447122B2, “Arginase inhibitors and methods of use thereof” (AstraZeneca AB, priority 2010, dated 2016).

Read-outs that look alike come from different tables or passages of the source. Some results are limits rather than exact numbers.

One assay deals with T1, human arginase I (Homo sapiens, UniProt P05089).
T1 sequence (P05089 1-322): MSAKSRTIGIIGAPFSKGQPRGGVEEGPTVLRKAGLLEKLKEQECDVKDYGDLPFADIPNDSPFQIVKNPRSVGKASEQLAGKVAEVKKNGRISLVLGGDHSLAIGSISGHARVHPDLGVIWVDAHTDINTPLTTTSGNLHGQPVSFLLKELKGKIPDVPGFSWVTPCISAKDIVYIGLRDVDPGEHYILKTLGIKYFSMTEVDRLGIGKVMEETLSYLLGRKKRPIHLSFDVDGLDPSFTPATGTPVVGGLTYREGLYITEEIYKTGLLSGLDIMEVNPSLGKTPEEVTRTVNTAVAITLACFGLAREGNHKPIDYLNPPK
In words: Arginase inhibition, QuantiChrom colorimetric urea assay, IC50 converted to Ki. Type of assay: biochemical. As for the experimental part:
(§1) For some compounds, their inhibitory potency at pH 7.5 was compared to the inhibitory potency of ABH at pH 7.5.
(§2) Quantitative determination of arginase activity was performed in a 96-well format by a colorimetric method using the QuantiChrom™ Arginase Assay Kit available from BioAssay Systems (Hayward, Calif., Catalog No. DARG-200) according to the manufacturer's protocol. Modifications were made to reagent quantities to suit the assaying of a highly purified sample.
(§3) The intensity of the color was directly proportional to the arginase activity in the sample.
(§4) The rate of urea production was measured in the presence of twelve different concentrations of each potential inhibitor compound. In a typical assay, seven different compounds were tested relative to a control inhibitor (e.g. ABH) against one enzyme (either human ArgI or human ArgII) at a particular pH (either 9.5 or 7.5). The pH of the solution was controlled using an appropriate pH buffering compound at 60 mM concentrations; for example, 60 mM glycine (pH 9.5) or 60 mM HEPES (pH 7.5). The half maximal inhibitory concentration (IC50) was determined by constructing a dose-response curve.

For a further assay, the target named is T2, human arginase II (Homo sapiens, UniProt P78540).
T2 sequence (P78540 23-354): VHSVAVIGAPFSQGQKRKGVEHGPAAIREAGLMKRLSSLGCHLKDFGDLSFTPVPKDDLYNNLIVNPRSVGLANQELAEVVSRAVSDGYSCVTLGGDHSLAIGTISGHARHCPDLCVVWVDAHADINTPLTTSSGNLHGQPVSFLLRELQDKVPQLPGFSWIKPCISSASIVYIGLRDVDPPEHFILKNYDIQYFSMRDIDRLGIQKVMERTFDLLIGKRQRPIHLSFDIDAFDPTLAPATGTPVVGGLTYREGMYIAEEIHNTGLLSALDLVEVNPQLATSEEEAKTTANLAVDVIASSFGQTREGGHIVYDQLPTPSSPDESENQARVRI
The description is as above. Type of assay: biochemical. As for the experimental part: as §1, §2, §3, §4

The subject of the next assay is Arg I and/or Arg II. Nature of the assay: pH effect: inhibitory potency at pH 7.5 compared with pH 9.5. The assay is classed as biochemical, human. The method, then: as §1
as §4, with “curve. As IC50 values are dependent upon the measurement conditions, the IC50 values were converted to the inhibitor binding affinity (K1) using the Cheng-Prusoff equation and the affinity constant (Km) of L-arginine which was estimated with the same activity assay (see, e.g., Cheng et al., 1973, Biochem. Pharmacol. 22:3099-108).” for “curve.”

For the next assay, the target named is T3, arginase (Homo sapiens, UniProt P78540).
T3 sequence (P78540 23-354): T2 sequence (P78540 23-354)
The note with it: literature; cited from earlier work.

Assay [1] has as its system opossum internal anal sphincter muscle. The note with it: cited from earlier work.
The test system of a further assay is guinea pigs. The note with it: nebulizer treatment, allergic asthma model; cited from earlier work.
The test system of assay [2] is rabbit and human penile corpus cavernosum. The note with it: rabbit and human tissue; cited from earlier work.
A further assay relates to live male rabbits. The note with it: cited from earlier work.
Assay [3] has as its system corpus cavernosum of the diabetic person. The note with it: ex vivo; cited from earlier work.
The next assay relates to female rabbits. The note with it: cited from earlier work.
Assay [4] concerns animal model of multiple sclerosis (experimental autoimmune encephalomyelitis). The note with it: cited from earlier work.
For a further assay, the system named is humans. The note with it: subcutaneous administration; cited from earlier work.
The subject of the next assay is Rats. Nature of the assay: Myocardial ischemia-reperfusion injury, infarct size IA/AR. The note with it: rat, 2 hrs reperfusion. The assay is classed as in vivo. The method, then:
Rats were intraperitoneally (IP) anesthetized to effect with pentobarbital (˜50 mg/kg), shaved and positioned in dorsal recumbence, intubated and ventilated (˜90 breaths/min, ˜2.5 mL tidal volume with 95% O2/5% CO2) with an adjustable small animal ventilator (Harvard Apparatus). Anesthesia was maintained with a continuous sodium pentobarbital infusion (to effect, ˜3 to 5 mg/kg/h, IV) until completion of the study via an indwelling catheter placed in a peripheral vein (e.g., femoral). Body temperature was continuously monitored throughout the duration of the surgical/experimental procedures via a rectal probe, and was maintained within the physiological range via a heated temperature-controlled (closed-loop) small animal surgical table/control unit (Vestavia Scientific).
Subsequently, transthoracic needle electrodes forming a single-lead ECG (e.g., lead II) were placed. Once a surgical plane of anesthesia had been reached, a femoral artery was isolated, dissected free from the surrounding tissue, and cannulated with a 2F high-fidelity micromanometer catheter (Millar Instruments). In order to record arterial/systemic pressures, this catheter was advanced towards the abdominal aorta. An in-dwelling catheter was also placed in a vein (i.e., jugular) for administration of the test article/vehicle, or stains (see below).
Finally, the animals were placed in right-lateral recumbence and the heart was exposed by a left-side thoracotomy/pericardiotomy. Ligatures were loosely placed (using a taper-point needle) around the proximal section of the left anterior descending artery (LAD). Tightening of these snares (via small pieces of polyethylene tubing) rendered a portion of myocardium temporarily ischemic.
Following surgical preparation, the animals were allowed to reach hemodynamic stability (for approximately 15 min), and baseline data was collected. It should be noted that in order to ensure experimental/data homogeneity, all animals must have satisfied the following entry criteria: heart rate >320 bpm and mean arterial pressure >80 mmHg. The anesthetic regime may be adjusted in order to ensure proper anesthesia/analgesia and to satisfy such inclusion criteria.
After hemodynamic stabilization and baseline measurements, the animals were treated with either vehicle or test article delivered as an intravenous bolus. Subsequently (approximately 15 min post-dosing), the animals were subjected to an acute 30 min ischemic insult by tightening of the LAD coronary artery snare. Myocardial ischemia was visually confirmed both by the appearance of cyanotic changes in distal distributions of the LAD as well as by the onset of electrocardiographic changes. After approximately 30 min of induced ischemia, the coronary snares were released and the previously ischemic myocardium was reperfused for up to 2 hrs. Treatments were not administered during either the ischemia and/or reperfusion periods. It should also be noted that in order to minimize any possible confounding effects on indices of myocardial injury, non-self-resolving malignant arrhythmias/rhythms (e.g., ventricular tachycardia/fibrillation) developing during reperfusion were considered terminal (i.e., the experiment was terminated prematurely).
At the completion of the protocol, irreversible myocardial injury (i.e., infarction) resulting from the I/R insult was evaluated. […]

For the next assay, the system named is prostate cancer. The note with it: cited from earlier work.
The subject of the next assay is breast cancer. The note with it: cited from earlier work.
Where [5] appears, read: Table 2, pH 7.5, read-out: human arginase I pH 7.5, Ki assigned value.
The mark [6] stands for this setting: Table 2, pH 9.5, read-out: human arginase I pH 9.5, Ki assigned value.
Where [7] appears, read: Table 2, pH 7.5, read-out: human arginase II pH 7.5, Ki assigned value.
The mark [8] stands for this setting: Table 2, pH 9.5, read-out: human arginase II pH 9.5, Ki assigned value.
Where [9] appears, read: 1 mg/kg iv bolus about 15 min before 30 min ischemia.
Setting [10] is: 3 mg/kg iv bolus about 15 min before 30 min ischemia.

The term Ki denotes the dissociation constant of the complex between target and ligand, obtained from inhibition or displacement. On to `N[C@@H](CCCCB(O)O)C(=O)O` [ABH, 2(S)-amino-6-boronohexanoic acid], for which the inhibition constant Ki on human arginase I (setting [5]) lay in the range of 51 to 100 nM; on human arginase I (setting [6]), 11 to 50 nM; on human arginase II (setting [7]) it was 101 to 250 nM; on human arginase II (setting [8]), 11 to 50 nM. Further, the “increased potency for at least one isozyme” value with Arg I and/or Arg II (Table 2, pH 7.5 vs pH 9.5) is given as “no ^b”. For the same compound, in the assay with Arg I and/or Arg II (both or at least one of the arginases), the “potency at pH 7.5 as compared to pH 9.5, arginases” value was “decrease in inhibitory potency”. For the same compound, the “inhibitory potency at pH 7.5 vs pH 9.5” value on arginase is “much lower at pH 7.5 than at pH 9.5”. The “relaxation of internal anal sphincter muscle” value in assay [1] is on record as “relax this muscle”. In addition, the airway hyperresponsiveness entry in the assay on guinea pigs is “prevents airway hyperresponsiveness”. Besides, the “NO-dependent relaxation of corpus cavernosum” value in assay [2] is on record as “enhances the NO-dependent relaxation”. Besides, the erectile response result in the assay on live male rabbits is listed as “enhances the erectile response”. In addition, the NO biosynthesis result in [3] was “restores NO biosynthesis”. Also, the “engorgement response in the genitalia” value in the assay on female rabbits is recorded as “enhances the engorgement response”. Further, the disease score result in assay [4] is listed as “improves the disease score”.

`N[C@@H](CSCCB(O)O)C(=O)O` [BEC, S-(2-boronoethyl)-L-cysteine]: at arginase, the “inhibitory potency at pH 7.5 vs pH 9.5” value is “much lower at pH 7.5 than at pH 9.5”. Also, the vasodilation and circulation entry in the assay with humans is “vasodilatory and enhances circulation”.

As to `NC(CCCCB(O)O)(CCCN1CCN(Cc2ccc(Cl)c(Cl)c2)CC1)C(=O)O` (stereo not shown) [Example 8], the Ki at human arginase I (setting [5]) was below 10 nM; at human arginase I (setting [6]), 11 to 50 nM; on human arginase II (setting [7]) it was 11 to 50 nM; on human arginase II (setting [8]), 11 to 50 nM. The “Mean IA/AR (%)” value is 32% with Rats (setting [9]) and 29% in the assay on Rats (setting [10]).

As for `CS(=O)(=O)c1ccc(CN2CCN(CCCC(N)(CCCCB(O)O)C(=O)O)CC2)cc1` (stereo not shown) [Example 10], the Ki on human arginase I (Table 3, pH 7.5, read-out: human Arginase I pH 7.5, Ki assigned value) is below 10 nM; on human arginase I (Table 3, pH 9.5, read-out: human Arginase I pH 9.5, Ki assigned value) it was 11 to 50 nM; at human arginase II (Table 3, pH 7.5, read-out: human Arginase II pH 7.5, Ki assigned value), 11 to 50 nM; on human arginase II (Table 3, pH 9.5, read-out: human Arginase II pH 9.5, Ki assigned value) it was 11 to 50 nM. Besides, the “Mean IA/AR (%)” value with Rats (setting [9]) came to 24%; in the assay with Rats (setting [10]), 22%; in the assay with Rats (10 mg/kg iv bolus about 15 min before 30 min ischemia), 17%.

For `N=C(NO)NCCC[C@H](N)C(=O)O` [N-hydroxy-L-arginine, N^Ω-hydroxy-L-arginine], the tumor immunotherapy result in the assay on prostate cancer is “facilitates tumor immunotherapy”. Besides, the “cell proliferation and apoptosis” value with breast cancer is “inhibits cell proliferation and induces apoptosis”.
